Data set [1] has as its target T1, Transcriptional activator protein LasR (Pseudomonas aeruginosa (strain ATCC 15692 / PAO1 / 1C / PRS 101 / LMG12228)) (UniProt P25084).
T1 sequence (whole entry): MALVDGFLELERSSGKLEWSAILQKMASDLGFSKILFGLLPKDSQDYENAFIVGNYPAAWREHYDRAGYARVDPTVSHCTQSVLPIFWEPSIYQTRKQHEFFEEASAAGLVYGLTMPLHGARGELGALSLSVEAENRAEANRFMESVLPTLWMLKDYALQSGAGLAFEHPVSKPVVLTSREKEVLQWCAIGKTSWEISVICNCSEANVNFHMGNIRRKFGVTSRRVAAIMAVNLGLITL
Briefly: Induction of lasR-mediated quorum sensing in Pseudomonas aeruginosa PAKR02 harboring lasB::luxCDABE gene assessed as lasR-induction ratio at 10^-4 M after 24 hrs by bioluminescence assay relative to control.

The next data set has as its system Jurkat. Briefly: Cytotoxicity against human Jurkat E6-1 cells assessed as cell viability after 24 hrs by trypan blue exclusion assay. In kind it is cell-based. The conditions noted are these: for EC50: Homo sapiens, Jurkat; for Activity: human, jurkat.
Data set [2] is described as follows: Immunosuppressive activity in mouse concanavalin A-stimulated peripheral blood leukocyte assessed as inhibition of leukocyte proliferation by [3H]thymidine incorporation assay. In kind it is functional.
Data set [3] has as its target T1, Transcriptional activator protein LasR (Pseudomonas aeruginosa (strain ATCC 15692 / PAO1 / 1C / PRS 101 / LMG12228)). As to the kind of experiment: Inhibition of OdDHL-induced LasR activation in Pseudomonas aeruginosa PAKR02 harboring lasB::luxCDABE gene assessed as remaining Las activity at 10^-4 M after 24 hrs by bioluminescence assay.

The source of these data is ChEMBL document CHEMBL1773053, “Immunosuppressive but non-LasR-inducing analogues of the Pseudomonas aeruginosa quorum-sensing molecule N-(3-oxododecanoyl)-l-homoserine lactone” (J Med Chem, 2011).

What is called EC50 is the concentration at which the effect is half-maximal.

Take `CCCCCCCCCC(=O)CC(=O)N[C@H]1CCOC1=O`: in data set [1], the Ratio worked out at 12.3. Also, the results for the EC50 (in the data set on Jurkat; in data set [2]) were 250 µM and 21 µM, respectively.
Turning to `CCCCCCCCCSCC(=O)N[C@H]1CCOC1=O`, the Ratio in data set [1] was found to be 0.9. In addition, the Activity in data set [3] turned out to be 51%. Further, the EC50 (with Jurkat; in data set [2]) was > 1000 µM throughout.
Turning to `CCCCCCCCCN(O)CC(=O)N[C@H]1CCOC1=O`, the Ratio in data set [1] came to 0.99. In data set [3], the Activity came out at 69%. The EC50 came to 400 µM with Jurkat and 13 µM in data set [2].
With `CCCCCCCCCC(=O)CC(=O)N[C@H]1CC(=O)NC1=O`, the Ratio in data set [1] was found to be 1.04. Besides, the Activity in data set [3] was 82%; in the data set with Jurkat it was “Non-toxic”. Also, the EC50 in data set [2] is > 1000 µM.
Regarding `CCCCCCCCOC(=O)CC(=O)N[C@H]1CCOC1=O`, in data set [1], the Ratio amounted to 1.18. The Activity in data set [3] amounted to 46%. Also, the concentration for a half-maximal effect (EC50) in the data set on Jurkat came to 500 µM; in data set [2] it was 37 µM.
On to `CCCCCCCCC[S+]([O-])CC(=O)N[C@H]1CCOC1=O` (some centres undefined), for which the concentration for a half-maximal effect (EC50) is 720 µM in the data set on Jurkat and 27 µM in data set [2].
As for `CCCCCCCCN(C)C(=O)CC(=O)N[C@H]1CCOC1=O`, the Ratio in data set [1] came to 0.91. Moreover, the Activity in data set [3] was found to be 60%. The EC50 in the data set on Jurkat is > 1000 µM; in data set [2] it was 22 µM.
Take `CCCCOCCCNC(=O)CC(=O)N[C@H]1CCOC1=O`: the Ratio in data set [1] was 0.97. Moreover, the Activity in data set [3] amounted to 108%. The EC50 with Jurkat was > 1000 µM; in data set [2], 101 µM.
Taken in the same sequence, the figures for `CCCCCCCCNC(=O)CC(=O)N[C@H]1CCOC1=O` were 1.06, 20%, 200 µM and 35 µM.
Regarding `CCCCCCCCNC(=O)CC(=O)N[C@@H]1CCCC[C@@H]1O`, in data set [1], the Ratio is 0.92. In addition, the Activity in data set [3] worked out at 45%. Further, the EC50 amounted to 400 µM with Jurkat and 32 µM in data set [2].
Taken in the same sequence, the figures for `CCCCCCCCNC(=O)CC(=O)Nc1cccc(C(N)=O)c1` were 0.81, 59%, 700 µM and 15 µM.
For `CCCCCCCCCCCNC(=O)CC(=O)N[C@H]1CCOC1=O`, the Ratio in data set [1] came out at 0.72. Further, in data set [3], the Activity was 14%. Also, the results for the EC50 (with Jurkat; in data set [2]) were 140 µM and 12 µM, respectively.
For `CCCCCCCCNS(=O)(=O)CC(=O)N[C@H]1CCOC1=O`, in data set [1], the Ratio stood at 1.02. The Activity in data set [3] is 101%. The EC50 in the data set on Jurkat turned out to be 900 µM; in data set [2], 13 µM.
Regarding `CCCCCCCCNC(=O)C(F)(F)C(=O)N[C@H]1CCOC1=O`, the Activity in data set [3] is 6%. Besides, the results for the concentration giving a half-maximal response (EC50) (in the data set with Jurkat; in data set [2]) were > 1000 µM and 97 µM, respectively.
With `CCCCCCCCCN(N)CC(=O)N[C@H]1CCOC1=O`, the Ratio in data set [1] was 1.03. Further, the Activity in data set [3] amounted to 55%. Besides, the values for the EC50 (with Jurkat; in data set [2]) were 410 µM and 8.9 µM, respectively.
The like results for `CCCCCCCCCCC[S+]([O-])CC(=O)N[C@H]1CCOC1=O` (some centres undefined) were, in that order, 0.77, 63%, 45 µM and 8.2 µM.
`CCCCCCCCNC(=O)CC(=O)Nc1cc(Cl)ccc1O`: the Ratio in data set [1] was found to be 0.62. Further, in data set [3], the Activity was found to be 66%. Also, the EC50 in the data set with Jurkat is > 1000 µM; in data set [2], 9.3 µM.
As for `CCCCCCCCCNC(=O)CC(=O)N[C@H]1CCOC1=O`, the Ratio in data set [1] is 1.01. Moreover, in data set [3], the Activity came out at 3.4%. Besides, the EC50 with Jurkat is 530 µM; in data set [2], 23 µM.
Take `CCOCCOCCNC(=O)CC(=O)N[C@H]1CCOC1=O`: the Ratio in data set [1] was 1.02. For the same compound, the Activity in data set [3] came to 61%. Further, the EC50 (with Jurkat; in data set [2]) was > 1000 µM each time.
For `CCCCCCCCNC(=O)C(F)C(=O)N[C@H]1CCOC1=O` (some centres undefined), in data set [1], the Ratio worked out at 0.91. For the same compound, the Activity in data set [3] was determined as 57%. Further, the EC50 in the data set on Jurkat stood at 800 µM; in data set [2], 26 µM.
For the compound `CCCCCCCCCC(=O)CC(=O)Nc1nccs1`, the Ratio in data set [1] was 0.87. The Activity in data set [3] amounted to 51%. Further, the EC50 in the data set on Jurkat stood at 800 µM; in data set [2] it was 25 µM.
The like results for `CCCCCCCCNC(=O)CC(=O)Nc1ccccc1C(N)=O` were, in that order, 0.8, 23%, 120 µM and 25 µM.
Taken in the same sequence, the figures for `CCCCCCCCC/C(O)=C1/C(=O)N[C@@H](CCO)C1=O` were 0.96, 21%, 52 µM and 29 µM.
The like results for `CCCCCCCCN(CCO)C(=O)CC(=O)N[C@H]1CCOC1=O` were, in that order, 1.01, 16%, 300 µM and 41 µM.
On to `CCCCCCCCCS(=O)(=O)CC(=O)N[C@H]1CCOC1=O`, for which the Ratio in data set [1] amounted to 0.92. Also, the Activity in data set [3] amounted to 72%. Further, the EC50 in the data set on Jurkat was 200 µM; in data set [2], 31 µM.
Taken in the same sequence, the figures for `CCCCCCCCN(CCC)C(=O)CC(=O)N[C@H]1CCOC1=O` were 0.99, 101%, 200 µM and 28 µM.
As to `CCCCCCCCNC(=O)CC(=O)Nc1nccs1`, the Ratio in data set [1] was determined as 0.9. The Activity in data set [3] is 64%. Moreover, the EC50 in the data set with Jurkat is 600 µM; in data set [2], 27 µM.
On to `CCCCCCCCCC(=O)CC(=O)N[C@H]1CCC(=O)NC1=O`, for which, in data set [1], the Ratio came to 1.03. In addition, the Activity in data set [3] was 71%; in the data set on Jurkat, “Non-toxic”. Also, the EC50 in data set [2] stood at 77 µM.
As to `CCCCCCCCNC(=O)CC(=O)Nc1ccccc1C(=O)N(C)C`, the Ratio in data set [1] turned out to be 0.91. Also, the Activity in data set [3] is 37%. The EC50 worked out at 160 µM in the data set on Jurkat and 22 µM in data set [2].
For `CCCCCCCCNC(=O)CC(=O)NC1CCCCCC1`, in data set [1], the Ratio was determined as 0.9. In addition, in data set [3], the Activity is 19%. Further, the figures for the EC50 (in the data set on Jurkat; in data set [2]) were 78 µM and 14 µM, respectively.
With `CCCCCCCCNC(=O)CC(=O)N[C@@H]1CCC[C@@H]1O`, the Ratio in data set [1] is 0.96. Further, the Activity in data set [3] was 55%. In addition, the EC50 with Jurkat was 400 µM; in data set [2], 43 µM.
Turning to `CCCCCCCCCCCS(=O)(=O)CC(=O)N[C@H]1CCOC1=O`, the Ratio in data set [1] was 0.75. The Activity in data set [3] is 76%. In addition, the EC50 is 170 µM in the data set with Jurkat and 8.3 µM in data set [2].
The like results for `CCCCCCCCNC(=O)CC(=O)Nc1ccc2[nH]ncc2c1` were, in that order, 1.1, 62%, > 1000 µM and 55 µM.
Take `CCCCCCCCNC(=O)CC(=O)Nc1ccccn1`: the Ratio in data set [1] is 0.91. Besides, the Activity in data set [3] was determined as 41%. Besides, the EC50 in the data set on Jurkat is > 1000 µM; in data set [2] it was 18 µM.
Taken in the same sequence, the figures for `CCCCOCCCNC(=O)CC(=O)N[C@@H]1CCC[C@@H]1O` were 0.94, 111%, > 1000 µM and 160 µM.
Taken in the same sequence, the figures for `CCCCCCCCNC(=O)CS(=O)(=O)N[C@H]1CCOC1=O` were 1.04, 86%, 220 µM and 9.1 µM.
Regarding `CCCCCCCCCN(CC(=O)N[C@H]1CCOC1=O)OCc1ccccc1`, the figures for the EC50 (in the data set on Jurkat; in data set [2]) were 63 µM and 17 µM, respectively.
`CCCCCCCCCC(CC(=O)N[C@H]1CCOC1=O)OC(C)=O` (mixture of isomers): the Ratio in data set [1] amounted to 1.13. Further, the Activity in data set [3] was determined as 70%. In addition, the results for the EC50 (in the data set with Jurkat; in data set [2]) were 120 µM and 5.2 µM, respectively.
Consider `CCCCCCCCNC(=O)CC(=O)Nc1ccccc1O`, for which, in data set [1], the Ratio was found to be 0.79. The Activity in data set [3] came out at 29%. Moreover, the concentration for a half-maximal effect (EC50) in the data set on Jurkat is > 1000 µM; in data set [2], 22 µM.
Taken in the same sequence, the figures for `CCOCCOCCNC(=O)CC(=O)N[C@@H]1CCC[C@@H]1O` were 1.03, 89%, 700 µM and 192 µM.
